Laboratory results taken from patent US11053239B2, “Compounds as BLC-2-selective apoptosis-inducing agents” (Fochon Pharmaceuticals, Ltd., priority 2017, dated 2021).
Where two headings read alike, the source gives them in different places.

Key:
DOHH2 cells = experiment: Cell proliferation assay (MTS), DOHH2 cells; assay type: cell-based; conditions: DOHH2 (DSMZ ACC 47) cell proliferation, 5000 cells/well, 120 h, MTS, mechanism-based readout of Bcl-2 inhibition, read-out: DOHH2 IC50
Text: MTS testing kit was purchased from Promega. The RPMI-1640, Fetal bovine serum and Penicillin-Streptomycin were purchased from Gibco. Dimethyl sulfoxide (DMSO) was purchased from Sigma.
To investigate whether a compound is able to inhibit the activity of Bcl-2 in cells, a mechanism-based assay using DOHH2 (DSMZ No.® ACC 47) and RS4; 11 (ATCC® CRL-1873™) cell was developed. In this assay, inhibition of Bcl-2 was detected by the inhibition of DOHH2 and RS4; 11 cells proliferation. DOHH2 and RS4; 11 cells were cultured in culture flasks to 40-80% confluence in RPMI-1640 plus 10% fetal bovine serum. Cells were collected and plated onto 96-well plates at desired cell density (DOHH2: 5000 cells/well; RS4; 11: 30000 cells/well). Plates were incubated overnight at 37° C., with 5% CO2 to adhere. Compounds were added to the plates, and the final compound concentrations were 10000, 3333, 1111, […], 124, 41, 14, 4.6 and 1.5 nM. Plates plated with DOHH2 or RS4; 11 cells were placed at 37° C., with 5% CO2 for 120 h (DOHH2) or 72 h (RS4; 11) respectively. 20 μl MTS/100 μl medium mixture solution were added to each well and incubate the plates for exactly 2 hours. The reaction was stopped by adding 25 μl 10% SDS per well. Measure absorbance at 490 nm and 650 nm (reference wavelength). ICso was calculated using GraphPad Prism 5.0.

RS4; 11 cells = experiment: Cell proliferation assay (MTS), RS4; 11 cells; assay type: cell-based; conditions: RS4, 11 (ATCC CRL-1873) cell proliferation, 30000 cells/well, 72 h, MTS, mechanism-based readout of Bcl-2 inhibition, read-out: RS4, 11 IC50
In short: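 RS4;11 (30000 cells/well, 72 h) and DOHH2 (5000 cells/well, 120 h) cells in RPMI-1640/10% FBS, treated at 37 °C with compound at 1.5–10000 nM final. Viability by MTS (2 h, SDS stop), absorbance 490 nm minus 650 nm reference; IC50 fitted.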

Compound	IC50 (DOHH2 cells; Homo sapiens, DOHH-2, 120 h)	IC50 (RS4; 11 cells; Homo sapiens, RS4-11, 72 h)	IC50 (DOHH2 cells)	IC50 (RS4; 11 cells)
CCC(=O)N=S1(=O)CCN(CC[C@H](C)Nc2ccc(S(=O)(=O)NC(=O)c3ccc(N4CCN(CC5=C(c6ccc(Cl)cc6)CC(C)(C)CC5)CC4)cc3Oc3cnc4[nH]ccc4c3)cc2[N+](=O)[O-])CC1 [Example 81, (S)-2-((1H-pyrrolo[2,3-b]pyridin-5-yl)oxy)-4-(4-((4′-chloro-5,5-dimethyl-3,4,5,6-tetrahydro-[1,1′-biphenyl]-2-yl)methyl)piperazin-1-yl)-N-((3-nitro-4-((4-(1-oxido-1-(propionylimino)-1λ^6-thiomorpholino)butan-2-yl)amino)phenyl)sulfonyl) benzamide]	30 nM	7 nM	–	–
CC(=O)N=S1(=O)CCN(CCNc2ccc(S(=O)(=O)NC(=O)c3ccc(N4CCN(CC5=C(c6ccc(Cl)cc6)CC(C)(C)CC5)CC4)cc3Oc3cnc4[nH]ccc4c3)cc2[N+](=O)[O-])CC1 [Example 37, 2-((1H-pyrrolo[2,3-b]pyridin-5-yl)oxy)-N-((4-((2-(1-(acetylimino)-1-oxido-1λ^6-thiomorpholino)ethyl)amino)-3-nitrophenyl)sulfonyl)-4-(4-((4′-chloro-5,5-dimethyl-3,4,5,6-tetrahydro-[1,1′-biphenyl]-2-yl)methyl)piperazin-1-yl) benzamide]	228 nM	12 nM	–	–
CC1(C)CCC(CN2CCN(c3ccc(C(=O)NS(=O)(=O)c4ccc(NCC5CCC(N=S(C)(C)=O)CC5)c([N+](=O)[O-])c4)c(Oc4cnc5[nH]ccc5c4)c3)CC2)=C(c2ccc(Cl)cc2)C1 (single isomer, unassigned) [Example 50A, 2-((1H-pyrrolo[2,3-b]pyridin-5-yl)oxy)-4-(4-((4′-chloro-5,5-dimethyl-3,4,5,6-tetrahydro-[1,1′-biphenyl]-2-yl)methyl)piperazin-1-yl)-N-((4-(((4-((dimethyl(oxo)-λ^6-sulfanylidene)amino)cyclohexyl)methyl)amino)-3-nitrophenyl)sulfonyl) benzamide]	–	3 nM	3.5 nM	–
C[C@@H](CN1CCS(=O)(=NC2CC2)CC1)Nc1ccc(S(=O)(=O)NC(=O)c2ccc(N3CCN(CC4=C(c5ccc(Cl)cc5)CC(C)(C)CC4)CC3)cc2Oc2cnc3[nH]ccc3c2)cc1[N+](=O)[O-] [Example 39, (S)-2-((1H-pyrrolo[2,3-b]pyridin-5-yl)oxy)-4-(4-((4′-chloro-5,5-dimethyl-3,4,5,6-tetrahydro-[1,1′-biphenyl]-2-yl)methyl)piperazin-1-yl)-N-((4-((1-(1-(cyclopropylimino)-1-oxido-1λ^6-thiomorpholino)propan-2-yl)amino)-3-nitrophenyl)sulfonyl)benzamide]	163 nM	40 nM	–	–
C[C@@H](CN1CCS(=N)(=O)CC1)Nc1ccc(S(=O)(=O)NC(=O)c2ccc(N3CCN(CC4=C(c5ccc(Cl)cc5)CC(C)(C)CC4)CC3)cc2Oc2cnc3[nH]ccc3c2)cc1[N+](=O)[O-] [Example 45, (S)-2-((1H-pyrrolo[2,3-b]pyridin-5-yl)oxy)-4-(4-((4′-chloro-5,5-dimethyl-3,4,5,6-tetrahydro-[1,1′-biphenyl]-2-yl)methyl)piperazin-1-yl)-N-((4-((1-(1-imino-1-oxido-1λ^6-thiomorpholino)propan-2-yl)amino)-3-nitrophenyl)sulfonyl) benzamide]	121 nM	119 nM	–	–
CC1(C)CCC(CN2CCN(c3ccc(C(=O)NS(=O)(=O)c4ccc(NCC5CCC(N=S(C)(C)=O)CC5)c([N+](=O)[O-])c4)c(Oc4cnc5[nH]ccc5c4)c3)CC2)=C(c2ccc(Cl)cc2)C1 (single isomer, unassigned) [Example 50B, 2-((1H-pyrrolo[2,3-b]pyridin-5-yl)oxy)-4-(4-((4′-chloro-5,5-dimethyl-3,4,5,6-tetrahydro-[1,1′-biphenyl]-2-yl)methyl)piperazin-1-yl)-N-((4-(((4-((dimethyl(oxo)-λ^6-sulfanylidene)amino)cyclohexyl)methyl)amino)-3-nitrophenyl)sulfonyl) benzamide]	–	–	13.4 nM	4 nM
CC(C)OC(=O)N=S1(=O)CCN(CC[C@H](C)Nc2ccc(S(=O)(=O)NC(=O)c3ccc(N4CCN(CC5=C(c6ccc(Cl)cc6)CC(C)(C)CC5)CC4)cc3Oc3cnc4[nH]ccc4c3)cc2S(=O)(=O)C(F)(F)F)CC1 [Example 93, isopropyl (S)-(4-(3-((4-(N-(2-((1H-pyrrolo[2,3-b]pyridin-5-yl)oxy)-4-(4-((4′-chloro-5,5-dimethyl-3,4,5,6-tetrahydro-[1,1′-biphenyl]-2-yl)methyl)piperazin-1-yl)benzoyl)sulfamoyl)-2-((trifluoromethyl)sulfonyl)phenyl)amino)butyl)-1-oxido-1λ^6-thiomorpholin-1-ylidene) carbamate]	537 nM	184 nM	–	–
CC(=O)N=S1(=O)CCN(C[C@H](C)Nc2ccc(S(=O)(=O)NC(=O)c3ccc(N4CCN(CC5=C(c6ccc(Cl)cc6)CC(C)(C)CC5)CC4)cc3Oc3cnc4[nH]ccc4c3)cc2[N+](=O)[O-])CC1 [Example 40, (S)-2-((1H-pyrrolo[2,3-b]pyridin-5-yl)oxy)-N-((4-((1-(1-(acetylimino)-1-oxido-1λ^6-thiomorpholino)propan-2-yl)amino)-3-nitrophenyl)sulfonyl)-4-(4-((4′-chloro-5,5-dimethyl-3,4,5,6-tetrahydro-[1,1′-biphenyl]-2-yl)methyl)piperazin-1-yl)benzamide]	84 nM	29 nM	–	–
CCC(=O)N=S1(=O)CCN(C[C@H](C)Nc2ccc(S(=O)(=O)NC(=O)c3ccc(N4CCN(CC5=C(c6ccc(Cl)cc6)CC(C)(C)CC5)CC4)cc3Oc3cnc4[nH]ccc4c3)cc2[N+](=O)[O-])CC1 [Example 65, (S)-2-((1H-pyrrolo[2,3-b]pyridin-5-yl)oxy)-4-(4-((4′-chloro-5,5-dimethyl-3,4,5,6-tetrahydro-[1,1′-biphenyl]-2-yl)methyl)piperazin-1-yl)-N-((3-nitro-4-((l-(1-oxido-1-(propionylimino)-1λ^6-thiomorpholino)propan-2-yl)amino)phenyl)sulfonyl) benzamide]	31 nM	11 nM	–	–
CC1(C)CCC(CN2CCN(c3ccc(C(=O)NS(=O)(=O)c4ccc(NCC5CCOCC5)c([N+](=O)[O-])c4)c(Oc4cnc5[nH]ccc5c4)c3)CC2)=C(c2ccc(Cl)cc2)C1 [Reference compound 1, 2-((1H-pyrrolo[2,3-b]pyridin-5-yl)oxy)-4-(4-((4′-chloro-5,5-dimethyl-3,4,5,6-tetrahydro-[1,1′-biphenyl]-2-yl)methyl)piperazin-1-yl)-N-((3-nitro-4-(((tetrahydro-2H-pyran-4-yl)methyl)amino)phenyl)sulfonyl)benzamide, reference compound]	57 nM	18 nM	–	–
CC1(C)CCC(CN2CCN(c3ccc(C(=O)NS(=O)(=O)c4ccc(NCC5CCC(N=S6(=O)CCCC6)CC5)c([N+](=O)[O-])c4)c(Oc4cnc5[nH]ccc5c4)c3)CC2)=C(c2ccc(Cl)cc2)C1 (stereo not shown) [Example 53, 2-((1H-pyrrolo[2,3-b]pyridin-5-yl)oxy)-4-(4-((4′-chloro-5,5-dimethyl-3,4,5,6-tetrahydro-[1,1′-biphenyl]-2-yl)methyl)piperazin-1-yl)-N-((3-nitro-4-(((4-((1-oxidotetrahydro-1λ^6-thiophen-1-ylidene)amino)cyclohexyl)methyl)amino)phenyl)sulfonyl)benzamide]	11 nM	7 nM	–	–
